# Reference: PMC5435687 (Scientific Reports, 2017)
# “Also recorded” adds a separate entry of the source. Where a name gives a salt, the structure may show the parent alone.
# Key:
# [1] = tested on: SH-SY5Y cells; experiment: Transferrin (Trf) uptake under pharmacological endocytosis inhibitors (control for clathrin-mediated endocytosis); format: cell-based, human; conditions: for effect of inhibitor on Trf uptake: 10 µM cytochalasin A, 25 µg/ml cytochalasin D, 10 µM IPA-3 or 25 nM wortmannin, Trf 5 µg/ml 5 min
# Experimental: (§1) Flow cytometry was used to quantify cellular uptake. The samples were washed in serum free medium (1x for experiments including only Aβ and 3x for experiments with Trf) prior to incubation with Aβ peptides and/or other reagents in serum free medium supplemented with 30 mM HEPES and 2% B-27. For experiments including Trf B-27 was omitted, as outlined above. Prior to analysis, the cells were washed 1x (for experiments including only Aβ) or 3x (for experiments including Aβ and dextran 10 kDa or Trf) in serum free medium, detached by trypsin-EDTA for 10 min followed by addition of FBS-supplemented cell culture medium to inhibit further proteolytic degradation. All samples were kept on ice until they were analysed on a Guava EasyCyte 8HT (Millipore, Darmstadt, Germany) that automatically retrieves samples from a 96-well plate. In order to exclude effects due to difference in delay time we used mixed order of analysis, loading only a few samples at a time with the remaining samples kept on ice. The cell counting gate was determined using propidium iodide (0.5 µM, not washed away prior to analysis) and calcein-AM (10 nM, 15 min staining) to distinguish live and dead cells, and for each sample 5,000 cells from within the live gate were counted and analysed. HF488, AlexaFluor488, EGFP and calcein-AM were excited by a 488 nm laser and their fluorescence was detected through a 525/30 nm filter. Propidium iodide and mRFP were excited by the 488 nm laser but detected through a 692/46 nm filter. HF647 and AlexaFluor647 were excited with a 635 nm laser and detected through a 661/19 nm filter. Compensation was performed to adjust for bleed through in experiments including mRFP. Mean cellular uptake was estimated as the average fluorescence intensity of all cells gated within the live region and all individual experiments were performed with three technical replicates (n = 3) unless else is stated. The average fluorescence intensity was baseline corrected by subtracting the signal for unstained cells.
# Endocytic mechanisms were also perturbed by treatment of cells with pharmacological inhibitors. Stock solutions of cytochalasin A, cytochalasin D, dynasore, wortmannin and IPA-3 were prepared in DMSO and diluted in serum-free cell culture media supplemented with 30 mM HEPES on the day of the experiment. The final DMSO concentration added to the cells was kept <0.1% and matched for the control. Prior to addition of Aβ peptide the cells were always washed in serum-free medium followed by pre-incubation for 30 min with either of the inhibitors diluted in serum-free medium with the addition of 30 mM HEPES. 1 µM Aβ was thereafter added and the cells were incubated for a total of 1 h, in presence of the respective inhibitors. The cells were centrifuged 1000 * g for 5 min at 4 °C, washed 3x with ice-cold serum-free medium, followed by detachment and immediate flow cytometry analysis, as detailed above. […] However, under exposure conditions where at least 75% if the inhibitor-treated cells were found in the live gate (see Supplementary Fig. S5) we observed reductions in Aβ uptake. Only the live cells were included in the analysis. Trf was used as a positive control for clathrin-mediated endocytosis. Due to the rapid uptake and recycling of internalized Trf we adopted an optimized protocol with sufficiently short Trf incubation times. First, to remove the quantities of membrane-bound Trf that originate from the serum component of the complete culture medium the cells were washed 3x in serum-free medium. The cells were then subjected to the inhibitors as described above and thereafter exposed to a 5 min pulse of 5 µg/ml Trf. To remove externally bound fluorescently labelled Trf the cells were thereafter washed (3x/2 min) in ice-cold acidic buffer (0.1 M Glycine-HCl buffer pH 2.5 with 150 mM NaCl)[35] whilst kept on ice. […]
# [2] = Stability of CPZ in aqueous solution; format: physicochemical; conditions: aqueous solution / cell culture medium
# [3] = tested on: SH-SY5Y cells; experiment: Cell viability by flow cytometry FSC/SSC live/dead gating; format: cell-based; conditions: for fraction of inhibitor-treated cells in the live gate: 90 min exposure at the concentrations used (10 µM cytochalasin A, 25 µg/ml cytochalasin D, 10 µM IPA-3, 25 nM wortmannin, 5 µg/ml CPZ, 80 µM dynasore), FSC/SSC gating
# Experimental: Flow cytometry was used to quantify cellular uptake. […] For experiments including Trf B-27 was omitted, as outlined above. […] All samples were kept on ice until they were analysed on a Guava EasyCyte 8HT (Millipore, Darmstadt, Germany) that automatically retrieves samples from a 96-well plate. In order to exclude effects due to difference in delay time we used mixed order of analysis, loading only a few samples at a time with the remaining samples kept on ice. The cell counting gate was determined using propidium iodide (0.5 µM, not washed away prior to analysis) and calcein-AM (10 nM, 15 min staining) to distinguish live and dead cells, and for each sample 5,000 cells from within the live gate were counted and analysed. […] Compensation was performed to adjust for bleed through in experiments including mRFP. Mean cellular uptake was estimated as the average fluorescence intensity of all cells gated within the live region and all individual experiments were performed with three technical replicates (n = 3) unless else is stated. The average fluorescence intensity was baseline corrected by subtracting the signal for unstained cells.
# (1 picture or pasted object on this page, not shown here)
# [4] = tested on: SH-SY5Y cells transfected with dyn2 K44A; experiment: Uptake in cells transfected with dominant negative dynamin2 K44A; format: cell-based, human; conditions: SH-SY5Y 24 h post transfection; HF647-labelled Aβ 1 µM 1 h or AF647-Trf 5 µg/ml 5 min; gated low/medium/high EGFP; N = 2, n = 3–5
# Experimental: as §1, with “In order to exclude effects due to difference in delay time we used mixed order of analysis, loading only a few samples at a time with the remaining samples kept on ice.” left out, “HF647 and AlexaFluor647 were excited with a 635 nm laser and detected through a 661/19 nm filter. Compensation was performed to adjust for bleed through in experiments including mRFP. Mean cellular uptake was estimated as the average fluorescence intensity of all cells gated within the live region and all individual experiments were performed with three technical replicates (n = 3) unless else is stated. The average fluorescence intensity was baseline corrected by subtracting the signal for unstained cells.” left out
# [5] = tested on: SH-SY5Y cells transfected with AP180-C; experiment: Uptake in cells overexpressing AP180-C; format: cell-based, human; conditions: SH-SY5Y 24 h post transfection; HF488-labelled Aβ 1 µM 1 h or AF647-Trf 5 µg/ml 5 min; low and high mRFP gates; N = 2, n = 2–4
# Experimental: as §1, with “cells. […]” for “cells.”
compound,measurement,setting,value
"CN(C)CCCN1c2ccccc2Sc2ccc(Cl)cc21 [CPZ, chlorpromazine hydrochloride]",inhibition at 5 µg/mL,"[1]; Homo sapiens, 5 µg/ml CPZ, Trf 5 µg/ml 5 min pulse at end of 1 h Aβ incubation, n = 3",~30%
same,stability in solution,[2],rapidly degraded in aqueous solutions; also recorded: rapid degradation in solution
CCN(c1nc(N)c(C(=O)NC(=N)N)nc1Cl)C(C)C [EIPA],specificity as macropinocytosis inhibitor,[1]; 25–200 µM,unspecific in SH-SY5Y cells regardless of the concentration used
"Oc1ccc2ccccc2c1SSc1c(O)ccc2ccccc12 [IPA-3, 1,1′-Disulfanediyldinaphthalen-2-ol]",fraction of inhibitor-treated cells in the live gate,[3],at least 90%
same,effect of inhibitor on Trf uptake,[1]; n = 3,identical to that in the control
C=C1[C@@H](C)[C@H]2[C@H](Cc3ccccc3)NC(=O)[C@]23OC(=O)/C=C/C(=O)CCC[C@@H](C)C/C=C/[C@H]3[C@@H]1O [cytochalasin A],fraction of inhibitor-treated cells in the live gate,[3],> 85%
same,effect of inhibitor on Trf uptake,[1]; n = 3,reduced the uptake of Trf
C=C1[C@@H](C)[C@H]2[C@H](Cc3ccccc3)NC(=O)[C@]23[C@H](OC(C)=O)/C=C/[C@@](C)(O)C(=O)[C@@H](C)C/C=C/[C@H]3[C@@H]1O [cytochalasin D],fraction of inhibitor-treated cells in the live gate,[3],> 85%
same,effect of inhibitor on Trf uptake,[1]; n = 3,reduced the uptake of Trf
O=C(N/N=C/c1ccc(O)c(O)c1)c1cc2ccccc2cc1O [dynasore],inhibition at 80 µM,"[1]; Homo sapiens, 5 min, 80 µM dynasore, 5 µg/ml AF647-Trf 5 min pulse, range over 4 independent experiments",30 to 65%
COC[C@H]1OC(=O)c2coc3c2[C@@]1(C)C1=C(C3=O)[C@@H]2CCC(=O)[C@@]2(C)C[C@H]1OC(C)=O [wortmannin],fraction of inhibitor-treated cells in the live gate,[3],at least 90%
same,effect of inhibitor on Trf uptake,[1]; n = 3,identical to that in the control
Transferrin [Trf],uptake in dyn2 K44A transfected cells relative to non-transfected cells,[4],inhibited in proportion to the degree of dyn2 K44A expression
same,uptake in AP180-C transfected cells compared to non-transfected cells,[5],systematically decreased with the degree of AP180-C overexpression
methyl-β-cyclodextrin,cytotoxicity during cholesterol depletion,[3],high levels of cytotoxicity
